From ChEMBL document CHEMBL3272039, “Potenial antitumor agents. 28. Deoxyribonucleic acid polyintercalating agents” (J Med Chem, 1978)

Columns and labels:
L1210 = experiment: Antitumor activity against mouse L1210 cells allografted in ip dosed BDF1 mouse at optimum dose administered qd for 5 days relative to control; format: functional
Mus musculus [1] = experiment: (§1) Toxicity in ip dosed BDF1 mouse allografted with mouse P388 cells administered qd for 5 days; format: organism-based; conditions: mouse, in vivo, 120 h
P388 = experiment: Antitumor activity against mouse P388 cells allografted in ip dosed BDF1 mouse at optimum dose administered qd for 5 days relative to control; format: functional
Bos taurus = species: Bos taurus; experiment: Displacement of ethidium bromide from calf thymus DNA by spectrofluorometric analysis
[2] = (§2) Toxicity in ip dosed BDF1 mouse allografted with mouse L1210 cells administered qd for 5 days; format: organism-based; conditions: BDF1, mouse, in vivo
[3] = Lipophilic-hydrophilic balance, Rm of the compound by reversed-phase chromatographic analysis; format: physicochemical
Pseudoalteromonas = experiment: Induction of bacteriophage PM2 closed circular DNA unwinding assessed as drug per nucleic acid phosphate ratio at equivalence by viscometric analysis
Mus musculus [4] = experiment: as §2; format: organism-based; conditions: mouse, in vivo, 120 h
[5] = as §1; format: organism-based; conditions: BDF1, mouse, in vivo

Compound | ILS (L1210) | Activity (Mus musculus [1]) | ILS (P388) | C50 (Bos taurus) | MTD at 120 h [2] | Rm [3] | Ratio (Pseudoalteromonas) | Activity (Mus musculus [4]) | MTD at 120 h [5]
Cl.O.O=S(=O)(CCCS(=O)(=O)Nc1ccc(Nc2c3ccccc3nc3ccccc23)cc1)Nc1ccc(Nc2c3ccccc3nc3ccccc23)cc1 | >25% | 250 mg/kg/day | 29% | 0.064 µM | 250 mg/kg/day | -0.16 |  |  | 
Cl.O.O=S(=O)(CCNc1c2ccccc2nc2ccccc12)Nc1ccc(Nc2c3ccccc3nc3ccccc23)cc1 | >25% | 60 mg/kg/day | 31% | 0.09 µM | 60 mg/kg/day | -0.17 | 0.078 |  | 
COc1cc(NS(=O)(=O)CCCCS(=O)(=O)Nc2ccc(Nc3c4ccccc4nc4ccccc34)c(OC)c2)ccc1Nc1c2ccccc2nc2ccccc12 | 26% | > 500 mg/kg/day | 39% | 0.057 µM |  | 0.27 | 0.041 | > 500 mg/kg/day | 
Br.O.O=S(=O)(CCCCCCNc1ccnc2ccccc12)Nc1ccc(Nc2c3ccccc3nc3ccccc23)cc1 | >25% |  | >25% | 0.65 µM | 75 mg/kg/day | -0.09 |  |  | 75 mg/kg/day
Br.O.O=S(=O)(CCNc1ccnc2ccccc12)Nc1ccc(Nc2c3ccccc3nc3ccccc23)cc1 | >25% | 90 mg/kg/day | 36% | 0.12 µM | 90 mg/kg/day | -0.54 | 0.12 |  | 
c1ccc(Nc2c3ccccc3nc3ccccc23)cc1 | >25% |  | >25% | 13 µM | 105 mg/kg/day | 0.43 |  |  | 105 mg/kg/day
Cl.O.O=S(=O)(CCCCCNc1ccnc2ccccc12)Nc1ccc(Nc2c3ccccc3nc3ccccc23)cc1 | >25% | 200 mg/kg/day | 37% | 0.4 µM | 200 mg/kg/day | -0.24 |  |  | 
COc1cc(NS(C)(=O)=O)ccc1Nc1c2ccccc2nc2ccccc12 [AMSACRINE] | 114% | 6.7 mg/kg/day |  | 10.8 µM |  | 0.18 | 0.082 | 6.7 mg/kg/day | 
Cl.O.O=S(=O)(CCCNc1c2ccccc2nc2ccccc12)Nc1ccc(Nc2c3ccccc3nc3ccccc23)cc1 | >25% | 300 mg/kg/day | 38% | 0.1 µM | 300 mg/kg/day | -0.25 |  |  | 
CS(=O)(=O)Nc1ccc(Nc2ccnc3ccccc23)cc1 | >25% |  | >25% | 490 µM | 200 mg/kg/day | -0.39 |  |  | 200 mg/kg/day
Br.O=S(=O)(CCCCNc1ccnc2ccccc12)Nc1ccc(Nc2c3ccccc3nc3ccccc23)cc1 | 29% | 75 mg/kg/day | 76% | 0.18 µM |  | -0.31 | 0.091 | 75 mg/kg/day | 
